Assay results as given in ChEMBL document CHEMBL1134446, “Polyamine analogue antidiarrheals: a structure-activity study” (J Med Chem, 2001).
Several values for one entry are separate records, joined by “and”; a condition that tells them apart may be missing. Equal entries are not always repeated.

Key:
Assay type in all cases: functional
Rattus norvegicus [1] = assay: Stool output of rat over the 6-h collection period when a dose of 1 mg/kg (2.3 administered
Rattus norvegicus [2] = assay: Stool output of rat over the 6-h collection period when a dose of 25 mg/kg (57.8 administered
Rattus norvegicus [3] = assay: Stool output of rat over the 6-h collection period when a dose of 5 mg/kg (11.6 administered
Rattus norvegicus [4] = assay: Weight loss of rat over the 6-h experimental period when a dose of 0 mg/kg (0 administered
Rattus norvegicus [5] = assay: Weight loss of rat over the 6-h experimental period when a dose of 1 mg/kg (2.3 uMl) was administered
Rattus norvegicus [6] = assay: Weight loss of rat over the 6-h experimental period when a dose of 25 mg/kg (57.8 administered
Rattus norvegicus [7] = assay: Weight loss of rat over the 6-h experimental period when a dose of 5 mg/kg (11.6 administered
Rattus norvegicus [8] = assay: Percent reduction was determined by using the ratio of mean of treated animal to that of control animal at a dose of 25 mg/kg
Rattus norvegicus [9] = assay: Percent reduction was determined by using the ratio of mean of treated animal to that of control animal at a dose of 5 mg/kg
Rattus norvegicus [10] = assay: Stool output of rat over the 6-h collection period when a dose of 0 mg/kg (0 administered
Rattus norvegicus [11] = assay: Percent reduction was determined by using the ratio of mean of treated animal to that of control animal at a dose of 1 mg/kg
Rattus norvegicus [12] = assay: Stool output of rat over the 6-h collection period when a dose of 23.5 mg/kg (58.13 uM) was given orally; details: route oral
Rattus norvegicus [13] = assay: Stool output of rat over the 6-h collection period when a dose of 47 mg/kg (116.25 uM) was given orally; details: route oral
Rattus norvegicus [14] = assay: Stool output of rat over the 6-h collection period when a dose of 5.9 mg/kg (11.6 administered
Rattus norvegicus [15] = assay: Stool output of rat over the 6-h collection period when a dose of 94 mg/kg (232.5 uM) was given orally; details: route oral
Rattus norvegicus [16] = assay: Weight loss of rat over the 6-h experimental period when a dose of 0 mg/kg (0 uM) was given orally; details: route oral
Rattus norvegicus [17] = assay: Weight loss of rat over the 6-h experimental period when a dose of 23.5 mg/kg (58.13 uM) was given orally; details: route oral
Rattus norvegicus [18] = assay: Weight loss of rat over the 6-h experimental period when a dose of 47 mg/kg (116.25 uM) was given orally; details: route oral
Rattus norvegicus [19] = assay: Weight loss of rat over the 6-h experimental period when a dose of 5.9 mg/kg (11.6 administered
Rattus norvegicus [20] = assay: Weight loss of rat over the 6-h experimental period when a dose of 94 mg/kg (232.5 uM) was given orally; details: route oral
Rattus norvegicus [21] = assay: Stool output of rat over the 6-h collection period when a dose of 0 mg/kg (0 uM) was given orally; details: route oral
Rattus norvegicus [22] = assay: Stool output of rat over the 6-h collection period when a dose of 15 mg/kg (47.6 administered
Rattus norvegicus [23] = assay: Weight loss of rat over the 6-h experimental period when a dose of 15 mg/kg (47.6 administered
Rattus norvegicus [24] = assay: Stool output of rat over the 6-h collection period when a dose of 4.6 mg/kg (11.6 administered
Rattus norvegicus [25] = assay: Weight loss of rat over the 6-h experimental period when a dose of 4.6 mg/kg (11.6 administered
Rattus norvegicus [26] = assay: Stool output of rat over the 6-h collection period when a dose of 5.3 mg/kg (11.6 administered
Rattus norvegicus [27] = assay: Weight loss of rat over the 6-h experimental period when a dose of 10.7 mg/kg (23.2 administered
Rattus norvegicus [28] = assay: Weight loss of rat over the 6-h experimental period when a dose of 5.3 mg/kg (11.6 administered
Rattus norvegicus [29] = assay: Percent reduction was determined by using the ratio of mean of treated animal to that of control animal at a dose of 5.3 mg/kg
Rattus norvegicus [30] = assay: Stool output of rat over the 6-h collection period when a dose of 10.7 mg/kg (23.2 administered
Rattus norvegicus [31] = assay: Percent reduction was determined by using the ratio of mean of treated animal to that of control animal at a dose of 10.7 mg/kg
Rattus norvegicus [32] = assay: Stool output of rat over the 6-h collection period when a dose of 30.4 mg/kg (57.8 administered
Rattus norvegicus [33] = assay: Stool output of rat over the 6-h collection period when a dose of 6.11 mg/kg (11.6 administered
Rattus norvegicus [34] = assay: Weight loss of rat over the 6-h experimental period when a dose of 1.22 mg/kg (2.3 administered
Rattus norvegicus [35] = assay: Weight loss of rat over the 6-h experimental period when a dose of 30.4 mg/kg (57.8 administered
Rattus norvegicus [36] = assay: Weight loss of rat over the 6-h experimental period when a dose of 6.11 mg/kg (11.6 administered
Rattus norvegicus [37] = assay: Stool output of rat over the 6-h collection period when a dose of 1.22 mg/kg (2.3 administered
[38] = The acute toxicity was determined in female CD1 mice after (ip) administration; details: Mus musculus
Rattus norvegicus [39] = assay: Stool output of rat over the 6-h collection period when a dose of 2.5 mg/kg (5.8 administered
Rattus norvegicus [40] = assay: Stool output of rat over the 6-h collection period when a dose of 25 mg/kg (57.6 uM) was given orally; details: route oral
Rattus norvegicus [41] = assay: Stool output of rat over the 6-h collection period when a dose of 50 mg/kg (115.6 uM) was given orally; details: route oral
Rattus norvegicus [42] = assay: Weight loss of rat over the 6-h experimental period when a dose of 1 mg/kg (2.3 administered
Rattus norvegicus [43] = assay: Weight loss of rat over the 6-h experimental period when a dose of 2.5 mg/kg (5.8 administered
Rattus norvegicus [44] = assay: Weight loss of rat over the 6-h experimental period when a dose of 25 mg/kg (57.6 uM) was given orally; details: route oral
Rattus norvegicus [45] = assay: Weight loss of rat over the 6-h experimental period when a dose of 50 mg/kg (115.6 uM) was given orally; details: route oral
Rattus norvegicus [46] = assay: Percent reduction was determined by using the ratio of mean of treated animal to that of control animal at a dose of 2.5 mg/kg
Rattus norvegicus [47] = assay: Percent reduction was determined by using the ratio of mean of treated animal to that of control animal at a dose of 50 mg/kg
Rattus norvegicus [48] = assay: Stool output of rat over the 6-h collection period when a dose of 12.5 mg/kg (28.9 uM) was given orally; details: route oral
Rattus norvegicus [49] = assay: Percent reduction was determined by using the ratio of mean of treated animal to that of control animal at a dose of 12.5 mg/kg
Rattus norvegicus [50] = assay: Weight loss of rat over the 6-h experimental period when a dose of 12.5 mg/kg (28.9 uM) was given orally; details: route oral
Rattus norvegicus [51] = assay: Stool output of rat over the 6-h collection period when a dose of 2.7 mg/kg (5.8 administered
Rattus norvegicus [52] = assay: Weight loss of rat over the 6-h experimental period when a dose of 1.1 mg/kg (2.3 administered
Rattus norvegicus [53] = assay: Weight loss of rat over the 6-h experimental period when a dose of 2.7 mg/kg (5.8 administered
Rattus norvegicus [54] = assay: Stool output of rat over the 6-h collection period when a dose of 1.1 mg/kg (2.3 administered

CCCNCCCNCCCCNCCCNCCC
Stool output (Rattus norvegicus [1]): >3.8 g (350g of rat weight)-1 | Stool output (Rattus norvegicus [2]): <0 g (350g of rat weight)-1 | Stool output (Rattus norvegicus [3]): <2.7 g (350g of rat weight)-1 | Weight loss (Rattus norvegicus [4]): 13.1 g | Weight loss (Rattus norvegicus [5]): <9.1 g | Weight loss (Rattus norvegicus [6]): <4 g | Weight loss (Rattus norvegicus [7]): <5.7 g | Reduction (Rattus norvegicus [8]): 69% and 100% | Reduction (Rattus norvegicus [9]): 56% and 55% | Stool output (Rattus norvegicus [10]): 6 g (350g of rat weight)-1 | Reduction (Rattus norvegicus [11]): 31% and 37%

FC(F)(F)CNCCCNCCCCNCCCNCC(F)(F)F
Stool output (Rattus norvegicus [12]): <1.9 g (350g of rat weight)-1 | Stool output (Rattus norvegicus [13]): <0.6 g (350g of rat weight)-1 | Stool output (Rattus norvegicus [14]): >7.5 g (350g of rat weight)-1 | Stool output (Rattus norvegicus [15]): <0 g (350g of rat weight)-1 | Weight loss (Rattus norvegicus [4]): 18.2 g | Weight loss (Rattus norvegicus [16]): 15.1 g | Weight loss (Rattus norvegicus [17]): <6.2 g | Weight loss (Rattus norvegicus [18]): <3.8 g | Weight loss (Rattus norvegicus [19]): >17.2 g | Weight loss (Rattus norvegicus [20]): <2.8 g | Stool output (Rattus norvegicus [10]): 7.2 g (350g of rat weight)-1 | Stool output (Rattus norvegicus [21]): 7.2 g (350g of rat weight)-1

c1cc(NCCCCNc2ccncc2)ccn1
Stool output (Rattus norvegicus [22]): >6.9 g (350g of rat weight)-1 | Weight loss (Rattus norvegicus [4]): 13.3 g | Weight loss (Rattus norvegicus [23]): >14.4 g | Stool output (Rattus norvegicus [10]): 5.6 g (350g of rat weight)-1

C(CCNC1CCNCC1)CNC1CCNCC1
Stool output (Rattus norvegicus [24]): >4.7 g (350g of rat weight)-1 | Weight loss (Rattus norvegicus [4]): 10 g | Weight loss (Rattus norvegicus [25]): >9.5 g | Stool output (Rattus norvegicus [10]): 4.2 g (350g of rat weight)-1

CC(C)CNCCCNCCCCNCCCNCC(C)C
Stool output (Rattus norvegicus [26]): >5.1 g (350g of rat weight)-1 | Weight loss (Rattus norvegicus [4]): 18.2 g | Weight loss (Rattus norvegicus [27]): <5 g | Weight loss (Rattus norvegicus [28]): <11.1 g | Reduction (Rattus norvegicus [29]): 39% | Stool output (Rattus norvegicus [10]): 7.2 g (350g of rat weight)-1 | Stool output (Rattus norvegicus [30]): >1.6 g (350g of rat weight)-1 | Reduction (Rattus norvegicus [31]): 78%

c1ccc(CNCCCNCCCCNCCCNCc2ccccc2)cc1
Stool output (Rattus norvegicus [32]): >5 g (350g of rat weight)-1 | Stool output (Rattus norvegicus [33]): >6.3 g (350g of rat weight)-1 | Weight loss (Rattus norvegicus [4]): 13.3 g | Weight loss (Rattus norvegicus [34]): >13.5 g | Weight loss (Rattus norvegicus [35]): >10.4 g | Weight loss (Rattus norvegicus [36]): >13.1 g | Stool output (Rattus norvegicus [10]): 6.2 g (350g of rat weight)-1 | Stool output (Rattus norvegicus [37]): >6.4 g (350g of rat weight)-1

CC(C)NCCCNCCCCNCCCNC(C)C
LD50 [38]: 125 mg/kg | Stool output (Rattus norvegicus [1]): <2.9 g (350g of rat weight)-1 | Stool output (Rattus norvegicus [39]): <0 g (350g of rat weight)-1 | Stool output (Rattus norvegicus [40]): <0 g (350g of rat weight)-1 | Stool output (Rattus norvegicus [41]): <0 g (350g of rat weight)-1 | Stool output (Rattus norvegicus [3]): <0.9 g (350g of rat weight)-1 | Weight loss (Rattus norvegicus [4]): 11.8 g | Weight loss (Rattus norvegicus [16]): 17.2 g | Weight loss (Rattus norvegicus [42]): <6.9 g | Weight loss (Rattus norvegicus [43]): <4.2 g | Weight loss (Rattus norvegicus [44]): <3.6 g | Weight loss (Rattus norvegicus [45]): <3.2 g | Weight loss (Rattus norvegicus [7]): <4.4 g | Reduction (Rattus norvegicus [46]): 64% and 100% | Reduction (Rattus norvegicus [8]): 79% and 100% | Reduction (Rattus norvegicus [9]): 63% and 87% | Reduction (Rattus norvegicus [47]): 81% and 100% | Stool output (Rattus norvegicus [10]): 6.8 g (350g of rat weight)-1 | Stool output (Rattus norvegicus [48]): <3.6 g (350g of rat weight)-1 | Reduction (Rattus norvegicus [49]): 49% and 50% | Reduction (Rattus norvegicus [11]): 42% and 57% | Stool output (Rattus norvegicus [21]): 7.2 g (350g of rat weight)-1 | Weight loss (Rattus norvegicus [50]): <8.7 g

CCCCNCCCNCCCCNCCCNCCCC
Stool output (Rattus norvegicus [51]): >4.2 g (350g of rat weight)-1 | Stool output (Rattus norvegicus [26]): >5.5 g (350g of rat weight)-1 | Weight loss (Rattus norvegicus [4]): 13.6 g | Weight loss (Rattus norvegicus [52]): >10.2 g | Weight loss (Rattus norvegicus [53]): >11.2 g | Weight loss (Rattus norvegicus [28]): >12 g | Stool output (Rattus norvegicus [10]): 4.6 g (350g of rat weight)-1 | Stool output (Rattus norvegicus [54]): >3.5 g (350g of rat weight)-1
